Here are results for 70 compounds from PubChem BioAssay AID2202554 (NIEHS Division of Translational Toxicology (DTT)).

Records with an inconclusive call do not appear. Activity calls are given as the source filed them. How the calls were made is not given here.

The series has as its system S. typhimurium/E. coli reverse mutation, colony counts. In words: Bacterial reverse mutation test (aka Ames test) summary data. The procedure, abridged: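 Revertant colony counts on plates, compared with untreated controls, after about two days of growth. Exposure with or without liver S9 (rat/hamster/mouse), dose range per strain, 20-min 37° C preincubation or direct plate incorporation. Strains: his⁻ Salmonella, trp⁻ E. coli WP2 uvrA pKM101.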
Background: The Ames test detects mutagens through reverse mutation in bacteria.
In the case of `Nc1ccc(N=Nc2cccc(N=Nc3ccc(N)cc3N)c2)c(N)c1`, the outcome is “active; positive”.

Take `C1CNCCN1`: the outcome was “inactive; negative”.

For the compound `COC(=O)/C=C/C(C)=C\C=C\C(C)=C\C=C\C=C(C)\C=C\C=C(C)\C=C\C(=O)O`, the outcome was “active; positive”.

In the case of `CCCCCCCCCCCCCCCCCCCC`, the outcome was “inactive; negative”.

As for `CC(C)(OO)c1ccccc1`, the outcome was “active; positive”.

As to `Cc1cc2nc3c(=O)[nH]c(=O)nc-3n(C[C@H](O)[C@H](O)[C@H](O)CO)c2cc1C`, the outcome is “inactive; negative”.

For the compound `Nc1ccc(Cl)c(N)c1`, the outcome is “active; positive”.

`OC(c1ccc(Cl)cc1)(c1ccc(Cl)cc1)C(Cl)(Cl)Cl`: the outcome was “inactive; negative”.

`c1cc2ccc3cccc4ccc(c1)c2c34`: the outcome was “active; positive”.

With `Brc1ccccc1-c1ccccc1`, the outcome is “inactive; negative”.

Take `O=C1OC(=O)c2c(Cl)c(Cl)c(Cl)c(Cl)c21`: the outcome was “inactive; negative”.

With `c1ccc2cc3ccccc3cc2c1`, the outcome was “active; weakly positive”.

In the case of `CC(C)=CCC1CCCC1=O` (stereo not given), the outcome is “inactive; negative”.

Turning to `Nc1ccccc1-c1ccccc1`, the outcome is “active; positive”.

As for `O=CC(Cl)(Cl)Cl`, the outcome was “active; weakly positive”.

For `FC(F)(F)c1ccccc1Cl`, the outcome was “inactive; negative”.

As for `CCOCCOCC`, the outcome is “active; positive”.

`O=C(Nc1ccccc1)c1cc2ccccc2c(N=Nc2cc(Cl)ccc2Cl)c1O`: the outcome is “active; weakly positive”.

For `O=C/C=C/c1ccccc1`, the outcome is “active; weakly positive”.

Take `[O]=[Mo](=[O])=[O]`: the outcome is “inactive; negative”.

`Nc1c(N=Nc2ccc(-c3ccc(N=Nc4ccc(O)cc4)cc3)cc2)c(S(=O)(=O)O)cc2cc(S(=O)(=O)O)c(N=Nc3ccccc3)c(O)c12`: the outcome was “active; positive”.

Take `ClC1=C(Cl)[C@]2(Cl)[C@H]3[C@H]([C@@H]4C=C[C@H]3C4)[C@@]1(Cl)C2(Cl)Cl`: the outcome was “inactive; negative”.

In the case of `Cc1cc(=O)[nH]c(=S)[nH]1`, the outcome is “inactive; negative”.

In the case of `Cc1occc(=O)c1O`, the outcome is “active; weakly positive”.

In the case of `C=CC(=O)O`, the outcome is “inactive; negative”.

As for `O=C(O)c1ccccc1`, the outcome was “inactive; negative”.

As for `Oc1c(Cl)cccc1Cl`, the outcome is “inactive; negative”.

With `O=Cc1ccccc1`, the outcome was “inactive; negative”.

Turning to `CC[C@H]1OC(=O)[C@H](C)[C@@H](O[C@H]2C[C@@](C)(OC)[C@@H](O)[C@H](C)O2)[C@H](C)[C@@H](O[C@@H]2O[C@H](C)C[C@H](N(C)C)[C@H]2O)[C@](C)(OC)C[C@@H](C)C(=O)[C@H](C)[C@@H](O)[C@]1(C)O`, the outcome is “inactive; negative”.

As for `C=CC(C)C#N` (stereo not given), the outcome was “active; weakly positive”.

On to `CC(=O)NBr`, for which the outcome was “inactive; negative”.

For the compound `O=[N+]([O-])c1ccc(CCO)cc1`, the outcome was “active; positive”.

With `CCOc1ccc(NC(N)=O)cc1`, the outcome was “inactive; negative”.

For the compound `CC(C)Br`, the outcome is “active; positive”.

Take `C=CCOC(=O)CCCCCCCC`: the outcome is “inactive; negative”.

`O=CC(=O)c1ccccc1`: the outcome was “active; positive”.

`COc1cc(-c2ccc(N=Nc3ccc4c(S(=O)(=O)O)cc(S(=O)(=O)O)c(N)c4c3O)c(OC)c2)ccc1N=Nc1ccc2c(S(=O)(=O)O)cc(S(=O)(=O)O)c(N)c2c1O`: the outcome is “active; positive”.

For `CS(=O)(=O)c1ccc(C(=O)C2C(=O)CCCC2=O)c([N+](=O)[O-])c1`, the outcome is “active; positive”.

With `Oc1ccc(/C=C/c2cc(O)cc(O)c2)cc1`, the outcome was “inactive; negative”.

For `CCCCCCOc1ccc(O)cc1`, the outcome was “inactive; negative”.

Take `OCCC(F)(F)C(F)(F)C(F)(F)C(F)(F)C(F)(F)C(F)(F)C(F)(F)C(F)(F)F`: the outcome is “inactive; negative”.

On to `CC(=O)O[C@]1(C(C)=O)CC[C@H]2[C@@H]3C[C@H](C)C4=CC(=O)CC[C@]4(C)[C@H]3CC[C@@]21C`, for which the outcome was “inactive; negative”.

For `FC(F)(F)C(F)(F)I`, the outcome was “active; positive”.

As to `O=C(O)C1C(C(=O)O)C2(Cl)C(Cl)=C(Cl)C1(Cl)C2(Cl)Cl` (stereo not given), the outcome was “inactive; negative”.

As for `COc1ccc(N)c(C)c1`, the outcome is “active; positive”.

With `CC[C@H]1OC(=O)[C@H](C)[C@@H](O[C@H]2C[C@@](C)(OC)[C@@H](O)[C@H](C)O2)[C@H](C)[C@@H](O[C@@H]2O[C@H](C)C[C@H](N(C)C)[C@H]2O)[C@](C)(O)C[C@@H](C)C(=O)[C@H](C)[C@@H](O)[C@]1(C)O`, the outcome was “inactive; negative”.

Regarding `O=[N+]([O-])c1ccc(Cl)cc1Cl`, the outcome is “active; positive”.

Regarding `CCCCC(CC)COC(=O)c1ccccc1C(=O)O` (stereo not given), the outcome was “inactive; negative”.

Consider `Nc1ccc(S(=O)(=O)c2ccc(N)cc2)cc1`, for which the outcome was “inactive; negative”.

For the compound `CN(C)c1ccc2nc3ccc(=[N+](C)C)cc-3sc2c1`, the outcome is “active; positive”.

For `Cc1ccc(N=Nc2c(O)c(S(=O)(=O)O)cc3ccc(S(=O)(=O)O)cc23)c(C)c1`, the outcome is “active; weakly positive”.

On to `CNc1ccc2nc3ccc(=[N+](C)C)cc-3sc2c1`, for which the outcome is “active; positive”.

As for `ClCC1CO1` (stereo not given), the outcome was “active; positive”.

Regarding `CCCCn1cc[n+](C)c1`, the outcome is “inactive; negative”.

As to `COc1cc([N+](=O)[O-])ccc1N`, the outcome was “active; positive”.

As to `Cc1ccc(S(=O)(=O)NC2CCCCC2)cc1`, the outcome is “inactive; negative”.

Consider `CCCN(CCC)c1c([N+](=O)[O-])cc(C(F)(F)F)cc1[N+](=O)[O-]`, for which the outcome is “active; positive”.

For the compound `Cc1ccc(C(=O)O)cc1[N+](=O)[O-]`, the outcome was “active; positive”.

Regarding `Cc1cc(C(C)(C)C)c(O)c(C(C)(C)C)c1`, the outcome is “inactive; negative”.

As for `Oc1c(Cl)c(Cl)c(Cl)c(Cl)c1Cl`, the outcome is “inactive; negative”.

In the case of `O=C(Nc1ccccc1SSc1ccccc1NC(=O)c1ccccc1)c1ccccc1`, the outcome is “inactive; negative”.

Take `N#Cc1ccccc1`: the outcome is “inactive; negative”.

Consider `CCCN(CCC)C(=O)SCC`, for which the outcome is “inactive; negative”.

On to `CC1CC(OC(=O)c2ccccc2O)CC(C)(C)C1` (stereo not given), for which the outcome was “inactive; negative”.

For the compound `Cc1cc(-c2ccc(N=Nc3cc(S(=O)(=O)O)c4ccccc4c3N)c(C)c2)ccc1N=Nc1cc(S(=O)(=O)O)c2ccccc2c1N`, the outcome was “inactive; negative”.

On to `O=c1n(CC2CO2)c(=O)n(CC2CO2)c(=O)n1CC1CO1` (stereo not given), for which the outcome was “active; positive”.

Take `CC1=CC(=O)CC(C)(C)[C@@]1(O)/C=C/C(C)=C\C(=O)O`: the outcome is “inactive; negative”.

Turning to `Nc1nc(=S)c2[nH]cnc2[nH]1`, the outcome is “active; positive”.

Consider `Clc1cc(Cl)c(Cl)c(Cl)c1`, for which the outcome is “inactive; negative”.

On to `CCNc1cccc(O)c1`, for which the outcome was “active; positive”.
